From ChEMBL document CHEMBL1148281, “Carbonic anhydrase inhibitors: synthesis and topical intraocular pressure lowering effects of fluorine-containing inhibitors devoid of enhanced reactivity” (J Med Chem, 2004)

What was measured:
Carbonic anhydrase 4 = biological target: T1, Carbonic anhydrase 4 (Bos taurus, UniProt Q95323)
T1 sequence (Q95323 whole entry): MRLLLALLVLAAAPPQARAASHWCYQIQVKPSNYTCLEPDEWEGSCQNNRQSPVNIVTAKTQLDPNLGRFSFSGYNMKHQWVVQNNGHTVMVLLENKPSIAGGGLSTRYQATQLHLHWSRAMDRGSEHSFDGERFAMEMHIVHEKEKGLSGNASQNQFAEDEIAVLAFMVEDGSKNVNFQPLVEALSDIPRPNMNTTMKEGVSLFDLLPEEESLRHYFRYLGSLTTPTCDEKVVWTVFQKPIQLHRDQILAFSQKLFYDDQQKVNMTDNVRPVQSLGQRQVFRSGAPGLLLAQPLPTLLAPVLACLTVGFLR
Description: In vitro inhibitory activity against bovine carbonic anhydrase IV (CAIV)

[1] = Reactivity against cysteine after 24 hours of incubation; assay type: functional
[2] = Reactivity against glutathione after 24 hours of incubation; assay type: functional
Carbonic anhydrase 2 = Carbonic anhydrase 2 (Homo sapiens, UniProt P00918)
Description: In vitro inhibitory activity against human carbonic anhydrase II (hCAII)

Carbonic anhydrase 1 = Carbonic anhydrase 1 (Homo sapiens, UniProt P00915)
Carbonic anhydrase 1, sequence (P00915 whole entry): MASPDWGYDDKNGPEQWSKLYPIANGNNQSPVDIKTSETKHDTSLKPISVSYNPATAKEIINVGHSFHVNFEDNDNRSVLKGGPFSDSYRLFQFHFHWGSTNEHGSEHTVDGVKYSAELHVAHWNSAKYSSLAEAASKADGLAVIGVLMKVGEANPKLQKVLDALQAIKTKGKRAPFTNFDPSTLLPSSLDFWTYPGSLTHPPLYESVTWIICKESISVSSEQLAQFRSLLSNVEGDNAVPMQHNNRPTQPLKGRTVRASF
Description: In vitro inhibitory activity against human carbonic anhydrase I (hCAI)

Row | Ki (Carbonic anhydrase 4) | Ki (Carbonic anhydrase 2) | Ki (Carbonic anhydrase 1) | Compound | Reactivity [1] | Reactivity [2]
1 | 50 nM |  |  | NS(=O)(=O)c1ccc(NC(=O)c2c(F)c(F)cc(F)c2F)c(Br)c1 |  | 
2 | 690 nM |  |  | NS(=O)(=O)c1ccccc1NC(=O)c1c(F)c(F)cc(F)c1F |  | 
3 |  |  |  | NS(=O)(=O)c1nnc(NS(=O)(=O)c2c(F)c(F)c(F)c(F)c2F)s1 | 76% | 68%
4 | 485 nM | 44 nM | 1750 nM | NS(=O)(=O)c1ccccc1NC(=O)Nc1c(F)c(F)c(F)c(F)c1F |  | 
5 | 245 nM | 80 nM | 1300 nM | NS(=O)(=O)c1ccc(NC(=O)Nc2c(F)c(F)c(F)c(F)c2F)c(Cl)c1 |  | 
6 | 63 nM |  |  | NS(=O)(=O)c1ccc(NS(=O)(=O)c2ccc(NC(=O)c3c(F)c(F)cc(F)c3F)cc2)cc1 |  | 
7 | 430 nM |  |  | NS(=O)(=O)c1cccc(NC(=O)Nc2c(F)c(F)c(F)c(F)c2F)c1 |  | 
8 | 430 nM |  |  | NS(=O)(=O)c1cccc(NC(=O)c2c(F)c(F)cc(F)c2F)c1 |  | 
9 | 54 nM |  |  | NS(=O)(=O)c1ccc(CNS(=O)(=O)c2ccc(NC(=O)c3c(F)c(F)cc(F)c3F)cc2)cc1 |  | 
10 | 360 nM | 95 nM | 1960 nM | NS(=O)(=O)c1ccc(NC(=O)Nc2c(F)c(F)c(F)c(F)c2F)c(Br)c1 |  | 
11 | 76 nM |  |  | NS(=O)(=O)c1ccc(CCNS(=O)(=O)c2c(F)c(F)cc(F)c2F)cc1 |  | 
12 | 24 nM |  |  | NS(=O)(=O)c1nnc(NC(=O)c2c(F)c(F)cc(F)c2F)s1 |  | 
13 | 21 nM |  |  | NS(=O)(=O)c1ccc(NC(=O)Nc2c(F)c(F)c(F)c(F)c2F)cc1 | 0% | 0%
14 | 330 nM | 25 nM | 1300 nM | NS(=O)(=O)c1ccc(NS(=O)(=O)c2c(F)c(F)cc(F)c2F)cc1 |  | 
15 | 31 nM |  |  | NS(=O)(=O)c1ccc(NC(=O)c2c(F)c(F)cc(F)c2F)c(F)c1 | 0% | 0%
16 | 21 nM | 13 nM | 320 nM | NS(=O)(=O)c1ccc(Nc2ccnc(NS(=O)(=O)c3c(F)c(F)cc(F)c3F)n2)cc1 |  | 
17 | 42 nM |  |  | NS(=O)(=O)c1ccc(NC(=O)c2c(F)c(F)cc(F)c2F)c(Cl)c1 |  | 
18 | 400 nM |  |  | NS(=O)(=O)c1ccc(NC(=O)c2c(F)c(F)cc(F)c2F)cc1 |  | 
19 | 94 nM |  |  | NS(=O)(=O)c1ccc(CCNC(=O)c2c(F)c(F)cc(F)c2F)cc1 |  | 
20 | 49 nM |  |  | NS(=O)(=O)c1ccc(CCNS(=O)(=O)c2ccc(NC(=O)c3c(F)c(F)cc(F)c3F)cc2)cc1 |  | 
21 | 63 nM | 18 nM | 760 nM | NS(=O)(=O)c1ccc(NC(=O)Nc2c(F)c(F)c(F)c(F)c2F)c(F)c1 |  | 
22 | 28 nM | 1.4 nM | 270 nM | Cn1nc(S(N)(=O)=O)s/c1=N/C(=O)c1c(F)c(F)cc(F)c1F |  | 
23 | 135 nM |  |  | NS(=O)(=O)c1ccc(CNS(=O)(=O)c2c(F)c(F)cc(F)c2F)cc1 |  | 
24 |  |  |  | NS(=O)(=O)c1ccc(NC(=O)c2c(F)c(F)c(F)c(F)c2F)c(F)c1 | 55% | 49%
25 | 41 nM | 15 nM | 940 nM | NS(=O)(=O)c1ccc(CCNC(=O)Nc2c(F)c(F)c(F)c(F)c2F)cc1 |  | 
26 | 120 nM |  |  | NS(=O)(=O)c1ccc(CNC(=O)c2c(F)c(F)cc(F)c2F)cc1 |  | 
27 | 15 nM |  |  | NS(=O)(=O)c1nnc(NS(=O)(=O)c2c(F)c(F)cc(F)c2F)s1 | 0% | 0%
28 |  |  |  | COc1ccc(NS(=O)(=O)c2c(F)c(F)c(F)c(F)c2F)cc1 | 98% | 96%
29 | 49 nM | 61 nM | 930 nM | NS(=O)(=O)c1ccc(NS(=O)(=O)c2c(F)c(F)cc(F)c2F)c(Cl)c1 |  | 
30 | 58 nM | 16 nM | 740 nM | NS(=O)(=O)c1cc(S(N)(=O)=O)c(NC(=O)Nc2c(F)c(F)c(F)c(F)c2F)cc1Cl |  | 

Row | Compound | Ki (Carbonic anhydrase 4) | Ki (Carbonic anhydrase 2) | Ki (Carbonic anhydrase 1) | Reactivity [1] | Reactivity [2]
31 | NS(=O)(=O)c1ccc(CNC(=O)Nc2c(F)c(F)c(F)c(F)c2F)cc1 | 50 nM | 15 nM | 1000 nM |  | 
32 | NS(=O)(=O)c1nnc(NC(=O)Nc2c(F)c(F)c(F)c(F)c2F)s1 | 45 nM | 3.6 nM | 270 nM |  | 
33 | NS(=O)(=O)c1ccc(NS(=O)(=O)c2c(F)c(F)cc(F)c2F)c(F)c1 | 42 nM | 3.8 nM | 580 nM |  | 
